This is an account of results in patent US6828341B2, “Cyclohexylamine derivatives as subtype selective N-Methyl-D-Aspartate antagonists” (Warner-Lambert Company, priority 2001, dated 2004).

Structures are written as SMILES. pIC50: −log10 of the molar value. Where a name gives a salt, the structure may show the parent alone. Where only a bound is given, the exact number is not on record here.

Data set [1] concerns the target T1, NR1A/NR2B NMDA receptor subtype (Rattus norvegicus, UniProt P35439+Q00960).
T1 construct: membrane fraction was prepared from frozen adult rat forebrains; tissue Zivic-Miller Laboratories, Inc; host or cells: adult rat forebrain, washed buffy coat membrane fraction
Put plainly: [3H]Ifenprodil binding assay (IFPNR). Particulars: displacement of 4 nM [3H]-ifenprodil, adult rat forebrain membranes, 2 hours at room temperature, pH 7.4. The method, then:
(b) [^3H]Ifenprodil Binding Assay (IFPNR) Protocol:
Ifenprodil, [phenyl-^3H]-(specific activity, 66.2 Ci/mmol) was purchased from Dupont NEN Research Products (Boston, Mass.). Ifenprodil tartrate was purchased from Research Biochemicals International (Natick, Mass.). HEPES, glutamate, and glycine were purchased from Sigma Chemical Co. (St. Louis, Mo.).
All buffers and reagents used in assay incubations or to dissolve drugs were prepared using water purified through a Milli-Q reverse osmosis system (Millipore Corp., Bedford, Mass.) and treated with UV emissions. Prior to use in the assays buffers were further filtered through a sterile Corning filtration unit (Corning Glass Works, Corning, N.Y.) containing a 0.2 micron filter. Buffer used to rinse the membranes on the assay filters was prepared with purified water, but was not refiltered and was stored no longer than 5 days. Stock solutions of the drugs (usually 10 mM) were dissolved in 20 mM HEPES-KOH buffer pH 7.4 (assay buffer) with the addition of from 1 to 5 μL of glacial AcOH, if needed to keep them in solution. Eliprodil was used as the reference NMDA antagonist. A stock solution of eliprodil was prepared and was buffered with the addition of 10% DMSO. All subsequent dilutions from the stock solution were made in buffer.
An extensively washed buffy coat membrane fraction was prepared from frozen adult rat forebrains (Zivic-Miller Laboratories, Inc., Zelienople, Pa.) as described by Coughenour L. L., Cordon J. J., J. Phannacol. Exp. Ther., 1997;280:584-592, and stored at −80° C. On the day of the assay, pellets of the frozen membrane fractions were resuspended in 35 mL of assay buffer at pH 7.4 using a POLYTRON (Kinematica A.G. Company, Littau, Switzerland) mixer at setting 6. After incubation at 37° C. for 30 minutes in a shaking water bath, the homogenate was centrifuged 40,000×g for 10 minutes at 4° C. The pellets were resuspended in fresh buffer and centrifuged 3 more times before final suspension for use in the assay.
Triplicate incubations were carried out in a volume of 0.5 mL in 1.3 mL polypropylene tubes (Marsh Biomedical Products Inc., Rochester, N.Y.) for 2 hours at room temperature. Incubations contained invention compounds, membranes (100-200 μg protein) and 4 nM [^3H]-ifenprodil in 20 mM HEPES-KOH buffer, pH 7.4 (assay buffer). Assays were started by addition of the membranes. Bound radioligand was separated by filtration under reduced pressure using a TOMTEC Mach II, 96 well cell harvester (Tomtec Inc, Orange, Conn.). Filtration was through Whatman GF/B glass fiber filters (Whatman Ltd., Maidstone, England), which had been soaked for at least 15 minutes in 0.3% polyethylenimine and allowed to air dry. The filters were rinsed with 3 mL of ice cold assay buffer within 6 seconds. Air was allowed to pass through the filters for an additional 10 seconds to remove residual moisture. The filter mat was supported on a cold (−20° C.) TEFLON (E. I. Du Pont de Nemours and Company, Wilmington, Del.) coated support, and filters from individual wells were separated and placed in Mini Poly-Q vials (Beckman Instruments Inc., Fullerton, Calif.) and filled with 4 mL of scintillation cocktail (Beckman Ready Protein^+). Radioactivity retained on the filter was determined by liquid scintillation spectrophotometry. Nonspecific binding was defined as the binding in the presence of 1 mM ifenprodil. 90% of the total binding of ifenprodil was specific binding at the NR1A/NR2B NMDA receptor subtype active site (as opposed to binding at a remote site).
Binding curves were statistically analyzed for a best one- or two-site competition fit using GRAPHPAD PRISM software (GraphPad Software Inc., San Diego, Calif.), a computer program used to analyze and graph scientific data. The normalized data was fitted by nonweighted nonlinear regression to either [formula]
Control data was entered as 100%, and no parameters were constrained. […]

T1 sequence (Q00960 27-1482, other chains not shown): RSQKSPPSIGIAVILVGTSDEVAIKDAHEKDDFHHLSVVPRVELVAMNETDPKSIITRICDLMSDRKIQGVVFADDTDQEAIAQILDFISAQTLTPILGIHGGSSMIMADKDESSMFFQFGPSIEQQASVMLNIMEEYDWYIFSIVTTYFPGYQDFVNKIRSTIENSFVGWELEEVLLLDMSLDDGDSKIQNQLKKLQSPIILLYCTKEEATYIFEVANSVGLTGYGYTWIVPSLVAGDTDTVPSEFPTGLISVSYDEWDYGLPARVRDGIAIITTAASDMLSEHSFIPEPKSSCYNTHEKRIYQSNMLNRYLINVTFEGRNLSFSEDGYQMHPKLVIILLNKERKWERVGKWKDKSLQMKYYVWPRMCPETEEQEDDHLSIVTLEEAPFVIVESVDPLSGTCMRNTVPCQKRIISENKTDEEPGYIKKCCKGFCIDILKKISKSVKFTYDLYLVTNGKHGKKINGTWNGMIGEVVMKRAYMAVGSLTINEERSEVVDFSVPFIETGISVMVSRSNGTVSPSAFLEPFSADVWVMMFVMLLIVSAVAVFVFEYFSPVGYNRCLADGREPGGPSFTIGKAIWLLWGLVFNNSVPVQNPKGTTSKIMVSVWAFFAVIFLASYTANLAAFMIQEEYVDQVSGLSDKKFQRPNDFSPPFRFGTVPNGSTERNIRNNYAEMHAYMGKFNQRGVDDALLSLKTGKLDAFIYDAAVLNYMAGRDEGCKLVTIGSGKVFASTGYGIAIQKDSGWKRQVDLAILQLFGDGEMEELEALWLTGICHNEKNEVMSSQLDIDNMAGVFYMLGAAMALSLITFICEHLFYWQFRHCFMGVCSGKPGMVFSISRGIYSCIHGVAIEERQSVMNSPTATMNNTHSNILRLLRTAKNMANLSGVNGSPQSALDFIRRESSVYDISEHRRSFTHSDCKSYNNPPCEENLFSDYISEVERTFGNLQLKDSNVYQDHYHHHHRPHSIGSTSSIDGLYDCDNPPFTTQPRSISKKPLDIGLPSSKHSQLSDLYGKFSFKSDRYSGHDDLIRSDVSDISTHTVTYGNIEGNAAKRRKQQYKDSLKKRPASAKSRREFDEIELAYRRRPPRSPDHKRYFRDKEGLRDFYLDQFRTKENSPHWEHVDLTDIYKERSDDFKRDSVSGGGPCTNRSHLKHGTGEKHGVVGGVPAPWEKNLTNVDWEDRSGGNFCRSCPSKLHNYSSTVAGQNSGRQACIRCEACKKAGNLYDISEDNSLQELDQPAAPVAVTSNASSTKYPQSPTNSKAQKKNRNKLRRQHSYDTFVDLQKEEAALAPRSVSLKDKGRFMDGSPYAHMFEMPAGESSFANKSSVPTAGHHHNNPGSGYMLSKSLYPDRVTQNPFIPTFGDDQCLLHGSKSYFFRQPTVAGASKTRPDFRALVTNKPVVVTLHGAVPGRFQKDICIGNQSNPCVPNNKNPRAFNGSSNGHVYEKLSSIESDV

As for `Cc1oc(-c2ccccc2)cc1CN(C)[C@H]1CC[C@H](c2ccc3[nH]c(=O)oc3c2)CC1` (as salt: hydrochloride) [Example 2, trans-6-{4-[Methyl-(2-methyl-5-phenyl-furan-3-ylmethyl)-amino]-cyclohexyl}-3H-benzoxazol-2-one], the melting point (usually the temperature, or range, at which the solid turns liquid) was 176 to 183 °C.
In the case of `CN(CC1CC(c2ccc(F)cc2)=NO1)[C@H]1CC[C@H](c2ccc3[nH]c(=O)oc3c2)CC1` (relative stereo) [Example 6b, trans-6-(4-{[3-(4-Fluoro-phenyl)-4,5-dihydro-isoxazol-5-ylmethyl]-methyl-amino}-cyclohexyl)-3H-benzoxazol-2-one], the melting point fell in the range of 109 to 114 °C. In data set [1], the pIC50 (commonly the IC50 on a negative log10 scale, so that one unit is a factor of ten) is 6.41.
On the same counts, the results for `Cc1sc(-c2ccccc2)nc1CN(C)[C@H]1CC[C@H](c2ccc3[nH]c(=O)oc3c2)CC1` [Example 5b, trans-6-{4-[Methyl-(5-methyl-2-phenyl-thiazol-4-ylmethyl)-amino]-cyclohexyl}-3H-benzoxazol-2-one] are 246 to 248 °C and 6.07.
In turn, `Cc1oc(-c2ccccc2)cc1CN(C)[C@H]1CC[C@H](c2ccc3[nH]c(=O)oc3c2)CC1` [Example 2, trans-6-{4-[Methyl-(2-methyl-5-phenyl-furan-3-ylmethyl)-amino]-cyclohexyl}-3H-benzoxazol-2-one] showed a pIC50 in data set [1] of 5.18.
Same read-out and setting: the value for `CN(CC1CN(c2ccc3[nH]c(=O)oc3c2)C(=O)O1)C1CCC(c2ccc(F)cc2)CC1` (stereo not drawn) [Example 4b, trans-6-(5-{[4-(4-Fluoro-phenyl)-cyclohexyl]-methyl-amino}-methyl-2-oxo-oxazolindin-3-yl)-3H-benzoxazol-2-one] was < 6.00; that for `CN(CC1CC(c2ccc3[nH]c(=O)oc3c2)=NO1)[C@H]1CC[C@H](c2ccccc2)CC1` (relative stereo) [Example 1, trans-6-(5-{[Methyl-(4-phenyl-cyclohexyl)-amino]-methyl}-4,5-dihydro-isoxazol-3-yl)-3H-benzoxazol-2-one] was 5.23.
Compound `CN(CC1CC(c2ccc3[nH]c(=O)oc3c2)=NO1)[C@H]1CC[C@H](c2ccccc2)CC1` (relative stereo) (as salt: hydrochloride) [Example 1, trans-6-(5-{[Methyl-(4-phenyl-cyclohexyl)-amino]-methyl}-4,5-dihydro-isoxazol-3-yl)-3H-benzoxazol-2-one] had a melting point of 270 to 274 °C.
In data set [1], `CN(C[C@@H]1CN(c2ccccc2)C(=O)O1)[C@H]1CC[C@H](c2ccc3[nH]c(=O)oc3c2)CC1` [Example 3b, trans-(R)-6-{4-[Methyl-(2-oxo-3-phenyl-oxazolidin-5-ylmethyl)-amino]-cyclohexyl}-3H-benzoxazol-2-one] gave a pIC50 of 6.40.
Same read-out and setting: the value for `O=C1OC(CNC2CCC(c3ccc(F)cc3)CC2)CN1c1ccc2[nH]c(=O)oc2c1` (stereo not drawn) [Example 4a, trans-6-{5-[4-(4-Fluoro-phenyl)-cyclohexylamino]-methyl-2-oxo-oxazolindin-3-yl}-3H-benzoxazol-2-one] was < 6.00.
